Like-named read-outs stand apart in the source and are kept apart here.
Key:
[1] = test system: HIV-1 Y188L mutant strain; assay: Anti-HIV-1 mutant strain Y188L in MT-4 cells, MTT method; format: cell-based; conditions: Human immunodeficiency virus 1, MT4, read-out: EC50 Y188L
Method: (§2) Evaluation of the anti-HIV activity and cytotoxicity of the target compounds was performed by utilizing the MTT method in MT-4 cells described previously [37]. Stock solutions (10 × final concentration) of test compounds were added in 25 μL volumes to two series of triplicate wells to allow simultaneous evaluation of their effects on mock- and HIV-infected cells at the beginning of each experiment. Serial five-fold dilutions of test compounds were prepared directly in flat-bottomed 96-well microtiter trays by adding 100 μL medium to the 25 μL stock solution and transferring 25 μL of this solution to another well that contained 100 μL medium using a Biomek 3000 robot (Beckman Instruments, Fullerton, CA). Each sample includes untreated control HIV- and mock-infected cell samples. WT HIV-1 strain (IIIB), HIV-1 drug-resistant strains including L100I, K103N, Y181C, Y188L, E138K, K103N/Y181C, F227L/V106A or HIV-2 strain (ROD) stock (50 μL) at 100–300 CCID50 (50% cell culture infectious dose) or culture medium was added to either the infected or mock-infected wells of the microtiter tray. Mock-infected cells were used to evaluate the effect of test compounds on uninfected cells to evaluate their cytotoxicity. Exponentially growing MT-4 cells were centrifuged for 5 min at 1000 rpm, and the supernatant was discarded. […] After infection five days, the viability of mock- and HIV-infected cells was examined spectrophotometrically by the MTT assay.

[2] = test system: HIV-1 K103N mutant strain; assay: microbe, parasite or virus in culture; format: cell-based; conditions: for EC50: Human immunodeficiency virus 1, MT4, read-out: EC50 K103N; for Resistance Folds K103N: RF, EC50 (K103N)/EC50 (WT)
Method: (§1) Stock solutions (10 × final concentration) of test compounds were added in 25 μL volumes to two series of triplicate wells to allow simultaneous evaluation of their effects on mock- and HIV-infected cells at the beginning of each experiment.

in vitro = conditions: human
Method: as §1

WT HIV-1 strain (IIIB) [3] = assay: Anti-HIV-1 (IIIB, wild-type) activity in MT-4 cells, MTT method; format: cell-based; conditions: for SI (IIIB): selectivity index, CC50/EC50 (IIIB)
Method: as §1

[4] = test system: HIV-1 E138K mutant strain; assay: Anti-HIV-1 mutant strain E138K in MT-4 cells, MTT method; format: cell-based; conditions: Human immunodeficiency virus 1, MT4, read-out: EC50 E138K
Method: as §2

[5] = test system: HIV-1 Y181C mutant strain; assay: Anti-HIV-1 mutant strain Y181C in MT-4 cells, MTT method; format: cell-based; conditions: Human immunodeficiency virus 1, MT4, read-out: EC50 Y181C
Method: as §2

[6] = test system: HIV-1 F227L + V106A mutant strain; assay: Anti-HIV-1 double mutant F227L + V106A in MT-4 cells, MTT method; format: cell-based; conditions: Human immunodeficiency virus 1, MT4, read-out: EC50 F227L + V106A
Method: as §2

[7] = test system: HIV-1 RES056 (K103N/Y181C) mutant strain; assay: Anti-HIV-1 double mutant RES056 in MT-4 cells, MTT method; format: cell-based; conditions: Human immunodeficiency virus 1, MT4, read-out: EC50 RES056
Method: as §2

HIV-1 WT RT [8] = target: T1, HIV-1 WT RT (Human immunodeficiency virus type 1 group M subtype B, UniProt P04585); set-up: method as in PMID 35061384; conditions: incorporation of biotin-dUTP; used for comparison ref 5; cited from earlier work
T1 construct: The RT is a heterodimer consisting of two subunits, p66 (560 residues) and p51 (440 residues); purchased Roche

[9] = test system: HIV-1 L100I mutant strain; assay: Anti-HIV-1 mutant strain L100I in MT-4 cells, MTT method; format: cell-based; conditions: Human immunodeficiency virus 1, MT4, read-out: EC50 L100I
Method: as §2

WT HIV-1 strain (IIIB) [10] = test system: WT HIV-1 strain (IIIB); set-up: method as in PMID 35061384; conditions: MT-4 cells, WT HIV-1 IIIB; used for comparison ref 5; cited from earlier work
HIV-2 strain (ROD) = assay: Anti-HIV-2 (ROD) activity in MT-4 cells, MTT method; format: cell-based; conditions: Human immunodeficiency virus 2, MT4, read-out: EC50 ROD
Method: as §1

HIV-1 WT RT [11] = target: T1, HIV-1 WT RT; assay: HIV-1 RT inhibition assay (Roche kit, ELISA); format: biochemical
Method: An HIV-1 reverse transcriptase (RT) assay kit produced by Roche was used for the RT inhibition assay. All the reagents for performing the RT reaction came from the kit, and the ELSIA procedures for RT inhibition assay were conducted following the description in the kit protocol [38]. […] Then used, a washing buffer was used to remove the unbound dNTPs, and an anti-DIG-POD working solution was added. […] The unbound anti-DIG-PODs were removed, and the peroxidesubstrate (ABST) solution was added to the MTPs. A colored reaction proceeds during the cleavage of the substrate catalyzed by POD. […] The percentage inhibitory activity of RT inhibitors was calculated by the formula given below: % Inhibition = [O.D. value with RT but without inhibitors − O.D. value with RT and inhibitors]/[O.D. value with RT and inhibitors − O.D. value without RT and inhibitors].

[12] = Human immunodeficiency virus 1, IIIB, MT4, read-out: EC50 IIIB, MT-4 cells, WT HIV-1 IIIB, MTT

Structure (SMILES)	EC50 [1]	EC50 [2]	CC50 at 5 days (in vitro)	EC50 (WT HIV-1 strain (IIIB) [3]; [12])	EC50 (WT HIV-1 strain (IIIB) [3]; read-out: EC50 IIIB, MT-4 cells, WT HIV-1 IIIB, MTT)	SI (IIIB) (WT HIV-1 strain (IIIB) [3])	EC50 [4]	EC50 [5]	EC50 [6]	EC50 [7]	IC50 (HIV-1 WT RT [8])	EC50 [9]	EC50 (WT HIV-1 strain (IIIB) [10])	Resistance Folds K103N [2]	EC50 (HIV-2 strain (ROD))	melting point	IC50 (HIV-1 WT RT [11])
Cc1cc(C#N)cc(C)c1Oc1nc(Nc2ccc(C#N)cc2)nc(N)c1Br [ETR, etravirine, reference compound]	18.1 ± 3.2 nM	3 ± 0.3 nM	> 4590 nM	3 nM	2.9 ± 0.4 nM	>1578.9	6.3 ± 1.2 nM	11.1 ± 1.3 nM	20.4 ± 7.8 nM	29.5 ± 4.8 nM	11 nM	5.9 ± 1 nM					
Cc1cc(/C=C/C#N)cc(C)c1Nc1ccnc(Nc2ccc(C#N)cc2)n1 [RPV, rilpivirine]													1 ± 0.27 nM				
Cc1cc(COc2cccnc2C#N)cc(C)c1Oc1ccnc(Nc2ccc(C#N)cc2)n1 [TF12, 3-((4-((2-((4-cyanophenyl)amino)pyrimidin-4-yl)oxy)-3,5-dimethylbenzyl)oxy) picolinonitrile]	≥ 1560 nM	34.7 ± 8.8 nM	2460 ± 198 nM	7.8 ± 0.8 nM		316.9	46.2 ± 7.1 nM	384 ± 75.5 nM	742 ± 145 nM	> 2460 nM		246 ± 54.6 nM		4.49	> 2460 nM	245 to 248 °C	38 ± 4 nM
Cc1cc(COc2cncc(C#N)c2)cc(C)c1Oc1ccnc(Nc2ccc(C#N)cc2)n1 [TF13, 5-((4-((2-((4-cyanophenyl)amino)pyrimidin-4-yl)oxy)-3,5-dimethylbenzyl)oxy) nicotinonitrile]	1050 ± 66.8 nM	28 ± 2.5 nM	4770 ± 1560 nM	19.4 ± 3.4 nM		246.4	57.7 ± 11.6 nM	265 ± 24.6 nM	1650 ± 19.9 nM	1180 ± 68.2 nM		125 ± 5.9 nM		1.47	> 4770 nM	195 to 198 °C	59 ± 1 nM
Cc1cc(COc2ccc(F)nc2)cc(C)c1Oc1ccnc(Nc2ccc(C#N)cc2)n1 [TF14, 4-((4-(4-(((6-fluoropyridin-3-yl)oxy)methyl)-2,6-dimethylphenoxy)pyrimidin-2-yl)amino)benzonitrile]	774 ± 39.2 nM	36.7 ± 3.7 nM	24400 nM	23.6 ± 3.8 nM		1034.6	67.4 ± 8.1 nM	286 ± 52.1 nM	999 ± 126 nM	1190 ± 182 nM		185 ± 11.6 nM		1.54	> 24400 nM	185 to 188 °C	41 ± 3 nM
Cc1cc(COc2ccc(NC(=O)OC(C)(C)C)cc2)cc(C)c1Oc1ccnc(Nc2ccc(C#N)cc2)n1 [TF16, (4-((4-((2-((4-cyanophenyl)amino)pyrimidin-4-yl)oxy)-3,5-dimethylbenzyl)oxy)phenyl)carbamic acid tert-butyl ester]	> 6200 nM	132 ± 28.4 nM	6200 ± 220 nM	45.3 ± 14.1 nM		136.7	246 ± 30.4 nM	1270 ± 154 nM	≥ 1620 nM	> 6200 nM		715 ± 184 nM		2.93	> 6200 nM	184 to 187 °C	160 ± 1 nM

Reference: publication PMC9697031, “Identification of Novel Diarylpyrimidines as Potent HIV-1 Non-Nucleoside Reverse Transcriptase Inhibitors by Exploring the Primer Grip Region” (Pharmaceuticals, 2022)
